The source made the active and inactive calls.

From ChEMBL document CHEMBL1201862, “PubChem BioAssay data set” (2004) come the findings set out here.

For one experiment, the system named is H9c2. Briefly: cells. Format: functional, cell-based. The note with it: Rattus norvegicus, H9c2, Myocardium.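 Further: confirmatory concentration-response retest of ultra-high-throughput screening hits for modulation of myocardial damage; cell death induced by hydrogen peroxide oxidative stress; compound pretreatment for 60 min then peroxide exposure for 2 h; potency is for protecting the cells against peroxide damage rather than for killing them.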
The target of another experiment is Melanocortin receptor 4 (Homo sapiens, UniProt P32245). It is filed as functional, cell-based.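 Further: Cell-based assay with luminescence read-out, confirmatory dose-response testing for agonist activity of biased ligands at MC4R; human U2OS cells with tagged receptor and beta-arrestin; potency of agonists that increase receptor coupling to beta-arrestin.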
Melanocortin receptor 4, sequence (P32245 whole entry): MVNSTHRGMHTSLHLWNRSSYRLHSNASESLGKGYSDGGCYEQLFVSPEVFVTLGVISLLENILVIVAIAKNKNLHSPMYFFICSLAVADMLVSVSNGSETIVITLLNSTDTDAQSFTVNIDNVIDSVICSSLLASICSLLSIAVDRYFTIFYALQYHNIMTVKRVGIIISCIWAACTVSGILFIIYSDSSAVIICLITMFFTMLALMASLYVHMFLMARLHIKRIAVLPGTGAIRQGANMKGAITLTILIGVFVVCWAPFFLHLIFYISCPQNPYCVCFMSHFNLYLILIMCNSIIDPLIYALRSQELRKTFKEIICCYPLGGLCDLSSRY
Experiment [1] concerns the target T1, Sentrin-specific protease 7 (Homo sapiens, UniProt Q9BQF6).
T1 sequence (Q9BQF6 whole entry): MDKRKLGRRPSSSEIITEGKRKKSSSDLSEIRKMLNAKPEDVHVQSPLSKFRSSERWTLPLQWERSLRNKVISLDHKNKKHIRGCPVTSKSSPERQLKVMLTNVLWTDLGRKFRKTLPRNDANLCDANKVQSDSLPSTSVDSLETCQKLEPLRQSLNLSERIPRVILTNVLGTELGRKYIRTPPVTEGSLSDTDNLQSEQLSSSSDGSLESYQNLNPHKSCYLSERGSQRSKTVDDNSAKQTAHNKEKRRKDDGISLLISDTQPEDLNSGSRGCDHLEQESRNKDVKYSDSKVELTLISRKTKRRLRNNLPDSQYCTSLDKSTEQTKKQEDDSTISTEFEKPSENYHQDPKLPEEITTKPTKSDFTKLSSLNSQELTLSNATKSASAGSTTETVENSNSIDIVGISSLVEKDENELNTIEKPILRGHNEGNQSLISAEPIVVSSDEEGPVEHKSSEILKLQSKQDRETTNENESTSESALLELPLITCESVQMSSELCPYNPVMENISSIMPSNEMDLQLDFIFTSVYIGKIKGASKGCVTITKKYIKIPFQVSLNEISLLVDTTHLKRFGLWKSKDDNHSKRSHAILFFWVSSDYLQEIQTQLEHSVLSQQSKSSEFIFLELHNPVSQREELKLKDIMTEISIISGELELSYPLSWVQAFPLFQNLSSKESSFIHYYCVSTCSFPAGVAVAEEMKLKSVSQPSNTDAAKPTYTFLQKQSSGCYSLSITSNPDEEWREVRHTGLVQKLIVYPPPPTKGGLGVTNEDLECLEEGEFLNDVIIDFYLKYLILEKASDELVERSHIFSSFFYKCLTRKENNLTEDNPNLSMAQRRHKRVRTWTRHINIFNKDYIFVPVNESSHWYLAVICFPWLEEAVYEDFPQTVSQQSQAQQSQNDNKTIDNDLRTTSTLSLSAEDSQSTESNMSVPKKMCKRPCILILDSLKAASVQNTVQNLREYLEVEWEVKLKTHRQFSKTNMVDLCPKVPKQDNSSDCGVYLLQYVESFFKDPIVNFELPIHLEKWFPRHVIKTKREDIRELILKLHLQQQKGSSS
The experiment can be described thus: SENP7 protease inhibitors, SAR follow-up, biochemical, luminescence (AID 504497). It is filed as functional.

Experiment [2] concerns the target T2, Sentrin-specific protease 8 (Homo sapiens, UniProt Q96LD8).
T2 sequence (Q96LD8 whole entry): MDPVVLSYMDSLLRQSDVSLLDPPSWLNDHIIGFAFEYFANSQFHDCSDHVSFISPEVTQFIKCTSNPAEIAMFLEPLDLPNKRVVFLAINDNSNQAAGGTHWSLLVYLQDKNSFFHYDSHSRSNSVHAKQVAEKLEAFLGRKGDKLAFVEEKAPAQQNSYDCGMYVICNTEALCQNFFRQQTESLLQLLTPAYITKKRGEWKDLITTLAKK
The experiment can be described thus: SENP8 protease inhibitors, SAR follow-up, biochemical, luminescence (AID 504501). It is filed as functional.

The target in another experiment is T3, Caspase-3 (Homo sapiens, UniProt P42574).
T3 sequence (P42574 whole entry): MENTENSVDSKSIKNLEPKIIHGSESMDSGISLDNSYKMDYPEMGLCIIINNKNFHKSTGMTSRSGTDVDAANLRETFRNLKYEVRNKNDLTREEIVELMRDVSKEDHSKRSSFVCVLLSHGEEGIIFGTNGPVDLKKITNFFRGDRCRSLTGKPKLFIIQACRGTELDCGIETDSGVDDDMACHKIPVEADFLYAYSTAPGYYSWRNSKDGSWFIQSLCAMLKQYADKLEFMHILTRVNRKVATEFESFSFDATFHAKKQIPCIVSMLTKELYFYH
Briefly: SAR Analysis of small molecule inhibitors of Sentrin-specific proteases (SENPs) using a Caspase-3 Selectivity assay. [Related pubchem assays (depositor defined):AID2540, AID2599, AID434973, AID489001]. It is filed as functional.

The target of experiment [3] is T4, Sentrin-specific protease 6 (Homo sapiens, UniProt Q9GZR1).
T4 sequence (Q9GZR1 whole entry): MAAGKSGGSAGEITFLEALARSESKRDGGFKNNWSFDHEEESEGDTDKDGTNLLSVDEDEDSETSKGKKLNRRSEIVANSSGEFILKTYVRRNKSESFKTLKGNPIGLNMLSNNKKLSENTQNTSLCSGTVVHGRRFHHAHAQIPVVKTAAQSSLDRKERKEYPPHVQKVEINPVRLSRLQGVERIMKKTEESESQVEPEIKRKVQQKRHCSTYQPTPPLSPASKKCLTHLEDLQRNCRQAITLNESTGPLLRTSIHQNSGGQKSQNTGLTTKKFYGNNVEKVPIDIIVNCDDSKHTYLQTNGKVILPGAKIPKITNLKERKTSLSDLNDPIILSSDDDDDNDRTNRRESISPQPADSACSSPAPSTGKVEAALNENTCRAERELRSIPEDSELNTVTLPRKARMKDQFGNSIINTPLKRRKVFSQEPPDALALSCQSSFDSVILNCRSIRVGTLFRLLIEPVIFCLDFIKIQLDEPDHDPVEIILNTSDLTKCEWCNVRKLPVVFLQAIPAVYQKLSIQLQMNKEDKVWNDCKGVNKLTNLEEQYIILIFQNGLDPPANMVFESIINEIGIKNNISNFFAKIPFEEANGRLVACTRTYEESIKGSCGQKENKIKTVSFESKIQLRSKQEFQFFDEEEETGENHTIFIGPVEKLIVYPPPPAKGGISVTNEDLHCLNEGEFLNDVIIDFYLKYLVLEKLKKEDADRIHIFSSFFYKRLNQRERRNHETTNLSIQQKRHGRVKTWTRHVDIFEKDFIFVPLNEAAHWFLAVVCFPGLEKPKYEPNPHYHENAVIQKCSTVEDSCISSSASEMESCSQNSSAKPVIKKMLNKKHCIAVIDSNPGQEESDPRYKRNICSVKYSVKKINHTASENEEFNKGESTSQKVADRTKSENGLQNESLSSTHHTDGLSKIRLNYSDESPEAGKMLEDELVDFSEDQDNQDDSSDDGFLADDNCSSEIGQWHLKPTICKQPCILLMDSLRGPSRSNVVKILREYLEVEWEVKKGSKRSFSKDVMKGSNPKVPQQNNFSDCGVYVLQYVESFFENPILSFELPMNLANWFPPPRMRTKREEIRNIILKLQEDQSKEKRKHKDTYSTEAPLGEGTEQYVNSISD
The experiment can be described thus: SAR Analysis of small molecule inhibitors of Sentrin-specific protease 6 (SENP6) using a Luminescent assay. [Related pubchem assays (depositor defined):AID2582, AID2599]. Format: functional.

Experiment [4] can be described thus: StAR promoter reporter inhibition counter-screen, dose response, counter-screen for LRH-1 inverse agonist project, cell-based, luminescence, luciferase reporter (AID 651969). Format: functional. Background: The purpose of a counterscreen is to sort out artefacts and off-target activity.
The next experiment has as its target Steroidogenic factor 1 (Homo sapiens, UniProt Q13285). The experiment can be described thus: Counterscreen for inverse agonists of the liver receptor homolog-1 (LRH-1; NR5A2): Luminescence-based cell-based high throughput dose response assay to identify inverse agonists of the Steroidogenic Factor 1 Nuclear Receptor (SF1; NR5A1). It is filed as functional.
Experiment [5] addresses Nuclear receptor subfamily 5 group A member 2 (Homo sapiens, UniProt O00482). Format: functional, cell-based.
The target in experiment [6] is T5, High affinity choline transporter 1 (Homo sapiens, UniProt Q9GZV3).
T5 sequence (Q9GZV3 whole entry): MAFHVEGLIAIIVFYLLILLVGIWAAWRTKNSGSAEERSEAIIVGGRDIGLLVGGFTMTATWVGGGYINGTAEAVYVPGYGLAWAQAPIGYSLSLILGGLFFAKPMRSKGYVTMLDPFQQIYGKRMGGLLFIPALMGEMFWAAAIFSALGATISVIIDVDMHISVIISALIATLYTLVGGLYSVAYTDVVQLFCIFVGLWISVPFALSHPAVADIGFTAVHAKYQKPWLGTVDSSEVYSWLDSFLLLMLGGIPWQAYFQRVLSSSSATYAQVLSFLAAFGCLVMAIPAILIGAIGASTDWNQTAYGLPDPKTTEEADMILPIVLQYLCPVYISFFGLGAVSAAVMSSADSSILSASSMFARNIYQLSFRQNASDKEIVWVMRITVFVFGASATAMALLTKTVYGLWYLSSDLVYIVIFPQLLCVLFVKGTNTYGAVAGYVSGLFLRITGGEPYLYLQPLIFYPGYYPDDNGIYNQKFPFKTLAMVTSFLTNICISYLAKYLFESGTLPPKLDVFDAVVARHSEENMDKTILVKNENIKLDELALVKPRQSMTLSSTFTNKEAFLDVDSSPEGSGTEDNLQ
The experiment can be described thus: CHT inhibitors, dose response, cell-based, 10-point CRC, membrane potential dye (AID 588401).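 Further: membrane potential dye fluorescence of choline-evoked depolarization via CHT.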 It is filed as functional.

For experiment [7], the target named is T5, High affinity choline transporter 1. Briefly: CHT inhibitors, dose response, cell-based, 5-point CRC, membrane potential dye (AID 504840). It is filed as functional.
Experiment [8] addresses DNA dC->dU-editing enzyme APOBEC-3G (Homo sapiens, UniProt Q9HC16). Briefly: APOBEC3G deaminase inhibitors, SAR follow-up, biochemical, fluorescence, single-stranded DNA substrate (AID 602136). Format: functional. The note with it: read-out: IC50_Mean.
The target of experiment [9] is DNA dC->dU-editing enzyme APOBEC-3A (Homo sapiens, UniProt P31941). The experiment can be described thus: SAR analysis of small molecule inhibitors of APOBEC3A DNA Deaminase via a fluorescence-based single-stranded DNA deaminase assay. It is filed as functional. The note with it: read-out: IC50_Mean.
DNA dC->dU-editing enzyme APOBEC-3A, sequence (P31941 whole entry): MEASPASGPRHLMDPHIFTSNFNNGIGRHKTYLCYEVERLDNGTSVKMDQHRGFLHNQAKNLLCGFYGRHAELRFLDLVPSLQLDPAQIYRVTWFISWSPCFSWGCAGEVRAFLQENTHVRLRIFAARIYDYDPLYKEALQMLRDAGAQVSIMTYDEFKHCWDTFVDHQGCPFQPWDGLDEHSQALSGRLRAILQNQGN
The target of experiment [10] is T6, Probable nicotinate-nucleotide adenylyltransferase (Staphylococcus aureus (strain N315), UniProt P65502). Format: functional, Staphylococcus aureus subsp. aureus N315. The note with it: read-out: IC50_Mean.
T6 sequence (P65502 whole entry): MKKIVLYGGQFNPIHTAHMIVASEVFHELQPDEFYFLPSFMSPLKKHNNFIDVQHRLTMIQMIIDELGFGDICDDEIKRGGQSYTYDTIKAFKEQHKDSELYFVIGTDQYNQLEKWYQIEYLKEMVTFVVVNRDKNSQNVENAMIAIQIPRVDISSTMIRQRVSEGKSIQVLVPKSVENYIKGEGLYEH
In experiment [11] the target is T6, Probable nicotinate-nucleotide adenylyltransferase. It is filed as functional, Staphylococcus aureus subsp. aureus N315.
Experiment [12] concerns Streptococcus sp. 'group A'. The experiment can be described thus: growth inhibition of control SK(-) GAS strain, dose response, counter-screen for streptokinase expression inhibitor project, luminescence, kanamycin, BacTiterGlo, confirmation (AID 1900). It is filed as functional, organism-based.
The subject of the next experiment is Streptococcus. Briefly: Group A Streptococcus viability loss, dose response, counter-screen for streptokinase expression inhibitor project, luminescence, BacTiterGlo (AID 1915).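 Further: potency for reduction of bacterial viability or growth.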 Format: functional, organism-based.

Nuclear receptor subfamily 5 group A member 2, sequence (O00482 whole entry): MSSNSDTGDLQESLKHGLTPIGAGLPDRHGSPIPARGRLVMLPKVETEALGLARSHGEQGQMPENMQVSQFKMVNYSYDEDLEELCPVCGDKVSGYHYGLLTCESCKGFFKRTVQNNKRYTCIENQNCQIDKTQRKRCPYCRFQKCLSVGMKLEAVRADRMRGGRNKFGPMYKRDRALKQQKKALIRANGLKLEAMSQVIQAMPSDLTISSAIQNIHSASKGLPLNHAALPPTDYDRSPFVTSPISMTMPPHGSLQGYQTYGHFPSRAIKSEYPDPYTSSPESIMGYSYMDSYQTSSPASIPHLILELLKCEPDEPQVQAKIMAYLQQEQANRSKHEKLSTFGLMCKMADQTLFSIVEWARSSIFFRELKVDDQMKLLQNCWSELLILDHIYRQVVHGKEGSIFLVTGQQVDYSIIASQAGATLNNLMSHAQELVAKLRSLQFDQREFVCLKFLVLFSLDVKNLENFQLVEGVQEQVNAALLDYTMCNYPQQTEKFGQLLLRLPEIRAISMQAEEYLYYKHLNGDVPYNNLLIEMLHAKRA
Steroidogenic factor 1, sequence (Q13285 whole entry): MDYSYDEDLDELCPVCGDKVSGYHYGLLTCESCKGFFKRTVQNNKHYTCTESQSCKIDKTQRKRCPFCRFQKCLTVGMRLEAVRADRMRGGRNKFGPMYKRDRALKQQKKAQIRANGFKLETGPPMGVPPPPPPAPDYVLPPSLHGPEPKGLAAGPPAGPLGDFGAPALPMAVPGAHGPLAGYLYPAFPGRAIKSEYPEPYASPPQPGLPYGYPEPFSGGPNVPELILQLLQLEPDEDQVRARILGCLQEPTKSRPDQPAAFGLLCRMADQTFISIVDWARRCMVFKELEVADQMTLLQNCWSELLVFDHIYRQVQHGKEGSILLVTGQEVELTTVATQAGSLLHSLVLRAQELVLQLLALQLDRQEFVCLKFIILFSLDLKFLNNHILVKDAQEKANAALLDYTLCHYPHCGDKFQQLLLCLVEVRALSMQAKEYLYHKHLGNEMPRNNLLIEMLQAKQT
DNA dC->dU-editing enzyme APOBEC-3G, sequence (Q9HC16 whole entry): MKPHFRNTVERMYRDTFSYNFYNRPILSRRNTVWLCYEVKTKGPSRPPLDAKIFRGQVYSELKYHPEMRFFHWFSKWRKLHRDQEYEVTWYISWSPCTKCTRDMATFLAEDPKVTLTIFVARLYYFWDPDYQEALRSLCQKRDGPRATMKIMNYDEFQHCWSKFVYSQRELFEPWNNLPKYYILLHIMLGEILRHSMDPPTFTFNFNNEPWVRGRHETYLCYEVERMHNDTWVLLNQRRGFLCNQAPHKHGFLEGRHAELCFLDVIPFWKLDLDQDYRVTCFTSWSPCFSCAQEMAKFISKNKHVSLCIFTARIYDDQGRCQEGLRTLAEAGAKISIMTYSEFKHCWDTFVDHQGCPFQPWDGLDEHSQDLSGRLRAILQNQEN

`COc1cc(-c2cc(NC=O)c3ncc(-c4cccc(C(F)(F)F)c4)n3c2)cc(OC)c1OC`: the IC50 with H9c2 was 51.3 µM (inactive). Further, the EC50 at Melanocortin receptor 4 was > 89.2 µM (inactive).

In the case of `Ic1ccccc1-c1nc(/C=C/c2ccccc2)no1`, the IC50 in [1] was 5 µM (active); in experiment [2], 15 µM (active); at Caspase-3, 18 µM (active); in experiment [3] it was 13 µM (active).

Regarding `CCOC(=O)c1cc2sccc2n1CC(=O)Nc1ccc2c(c1)OCCO2`, the figures for the IC50 (in experiment [4]; at Steroidogenic factor 1; in experiment [5]) were 35.9 µM (inactive), 15.7 µM (inactive) and 35.9 µM (inactive), respectively.

For `CCc1cc(O)nc(SCC(=O)Nc2ccc3c(c2)OCCO3)n1`, the figures for the IC50 (in experiment [4]; on Steroidogenic factor 1; in experiment [5]) were 35.9 µM (inactive), 12 µM (inactive) and 35.9 µM (inactive), respectively.

As for `COc1ccccc1NS(=O)(=O)c1ccc(C)c(C(=O)NCC(c2ccco2)N2CCCCC2)c1` (centres undefined), the results for the IC50 in [6] and in experiment [7] were 0.409 µM (active) and 0.778 µM (active), respectively.

With `COc1ccc(CSc2nc3nc(C)cc(C)n3n2)cc1F`, the IC50 in [6] was 11.2 µM (active); in experiment [7] it was 2.4 µM (active).

`O=C(O)c1ccc(Cl)c2c1C1C=CCC1C(c1ccccc1F)N2` (centres undefined): the IC50 is > 99 µM (inactive) in experiment [8] and 27.4 µM (inactive) in experiment [9].

Turning to `CCOc1ccccc1N1C(=O)C(=O)N(CC(=O)c2ccc[nH]2)C1=O`, the IC50 in experiment [8] and in experiment [9] was > 99 µM (inactive) in each case.

Turning to `NC(=O)[C@H]1CC2(CC(c3cccc(NC(=O)COc4ccc(Cl)cc4)c3)=NO2)CN1C(=O)CC(c1ccccc1)c1ccccc1` (some centres undefined), the IC50 in experiment [10] was 37.7 µM (active); in [11], 12.7 µM (active).

Take `Cc1ccc(NC(=S)NC(=O)c2ccc(-c3ccc(Cl)cc3)o2)c(O)c1`: the EC50 in experiment [12] was 7.63 µM (active); in the experiment with Streptococcus, 9.04 µM (active); at Melanocortin receptor 4, > 89.2 µM (inactive).

On to `N#Cc1c(NC(=O)c2cnn3cc(Br)cnc23)sc2c1CCC2`, for which the IC50 (in experiment [1]; in [2]; on Caspase-3; in experiment [3]) was > 99 µM (inactive) each time.

A word on the EC50: it is the concentration that produces a half-maximal response.
